Test results taken from US4299813A, “Assay kit and method” (priority 1979, dated 1981).
Several values for one entry are separate records, joined by “and”; a condition that tells them apart may be missing. Identical values can stand only once.

System: muscarinic cholinergic receptor
Test: Muscarinic cholinergic radioreceptor assay ([3H] QNB competition, serum antidepressant levels)
Format: binding, rat (Sprague-Dawley)
[1] = Standard C, 5.0 μM amitriptyline, Table II
[2] = Standard D, 1.0 μM amitriptyline, Table II
[3] = Standard E, 0.2 μM amitriptyline, Table II
[4] = Standard C, 50 μM imipramine, Table III
[5] = Standard D, 10 μM imipramine, Table III
[6] = Standard E, 2 μM imipramine, Table III

In the case of `CN(C)CCC=C1c2ccccc2CCc2ccccc21` [amitriptyline], the CPM (Sample 1, serum, Table II) is reported as 2537 CPM and 2867 CPM, the “Logit (B/Bo)” value (Sample 1, serum, Table II) is reported as -0.644 and -0.562 and the CPM (Sample 2, serum, Table II) is reported as 7735 CPM and 7778 CPM and 7386 CPM. For the same compound, the “Logit (B/Bo)” value (Sample 2, serum, Table II) was 0.288 and 0.295 and 0.227, the CPM (Standard A, 10^-5 M amitriptyline (background), Table II) was 533 CPM and 529 CPM and 479 CPM and the CPM (Standard A, 10^-5 M amitriptyline (background), imipramine curve, Table III) was 533 CPM and 529 CPM and 479 CPM. For the same compound, the CPM [1] was 1914 CPM and 1790 CPM and 1679 CPM, the “Logit (B/Bo)” value [1] was -0.834 and -0.879 and -0.924 and the CPM [2] was 5285 CPM and 5442 CPM and 5239 CPM. The “Logit (B/Bo)” value [2] was -0.112 and -0.087 and -0.119, the CPM [3] was 9240 CPM and 9692 CPM and the “Logit (B/Bo)” value [3] was 0.595 and 0.716. The CPM (Standard F, 0.04 μM amitriptyline, Table II) was 11235 CPM.
`CN(C)CCCN1c2ccccc2CCc2ccccc21` [imipramine] was tested, and the CPM (Sample 1, serum, Table III) was 7105 CPM and 7146 CPM and 6773 CPM, the “Logit (B/Bo)” value (Sample 1, serum, Table III) was 0.180 and 0.187 and 0.125 and the CPM (Sample 2, serum, Table III) was 9642 CPM and 8636 CPM and 8069 CPM. The CPM [4] was 4922 CPM and 4908 CPM and 4803 CPM, the “Logit (B/Bo)” value [4] was -0.171 and -0.173 and -0.191 and the CPM [5] was 8706 CPM and 8704 CPM and 8799 CPM. The “Logit (B/Bo)” value [5] was 0.473 and 0.493, the CPM [6] was 10370 CPM and 10617 CPM and 10843 CPM and the “Logit (B/Bo)” value [6] was 0.957 and 1.079 and 1.224.
